Assays:
AdipoR1 = target: T1, AdipoR1 (Mus musculus, UniProt Q91VH1); test: ULMA-AdipoR interaction assay (ULMA beads, C2C12 myotube membrane extracts, western blot); assay type: binding; conditions: 50 μg membrane extract, 12 hours
T1 construct: C2C12 myotubes (that express both AdipoR1 and AdipoR2) were incubated with 20 μl control or ULMA-beads; endogenous in cells; host or cells: C2C12 myotubes (mouse), plasma membrane extract
T1 sequence (Q91VH1 1-375): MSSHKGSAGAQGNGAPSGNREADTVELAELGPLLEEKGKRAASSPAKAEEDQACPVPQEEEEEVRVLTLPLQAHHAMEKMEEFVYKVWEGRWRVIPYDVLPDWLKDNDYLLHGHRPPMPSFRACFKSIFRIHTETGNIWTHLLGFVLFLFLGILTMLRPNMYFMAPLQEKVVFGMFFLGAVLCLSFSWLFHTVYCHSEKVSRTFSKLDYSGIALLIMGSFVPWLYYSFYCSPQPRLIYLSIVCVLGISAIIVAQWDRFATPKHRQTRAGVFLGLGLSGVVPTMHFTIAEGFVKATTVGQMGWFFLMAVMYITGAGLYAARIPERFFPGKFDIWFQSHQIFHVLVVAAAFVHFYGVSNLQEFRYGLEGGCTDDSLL
Procedure: (§1) B. ULMA interacts with AdipoRs. 20 μl of ULMA beads or control beads were incubated with 50 μg of plasma membrane extracts (prepared using a membrane protein isolation kit; Biomol; according to manufacturer's instructions) prepared from C2C12 myotubes (that expresses both AdipoR1 and AdipoR2) for 12 h on a rotary wheel set at 10 rpm. The supernatant was removed and an aliquot was stored as flowthrough. The pellet was washed 6 times and then the beads were boiled in Lamelli buffer and resolved by 10% denaturing polyacrylamide gel electrophoresis followed by transfer on nitrocellulose membrane and western blotting with anti AdipoR1 or anti-AdipoR2 antibodies. Data represents one of two independent experiments showing identical pattern.
(§2) To investigate whether this enhancement of PPAR ligand activity by ULMA indeed happens through AdipoRs, physical interaction between ULMA and AdipoRs were assessed. The ULMA was immobilized on agarose beads.
(§3) Preparation of ULMA Specific Affinity Matrix:
(§4) ULMA specific Affinity Matrix and Control Matrix were prepared using following protocol.
(§5) 1. 45 mg and 22.5 mg of epoxy-activated agarose beads (sigma) were weighed and put separately in two 1.5 ml eppendorf tubes. Tubes were labeled as tube-1 and tube-2. 2. The beads were washed 6×, 1 ml each, with double distilled water (DDW). […] At this stage beads were ready for incubation with protein source. […]

AdipoR2 = target: T2, AdipoR2 (Mus musculus, UniProt Q8BQS5); test: as above; assay type: binding; conditions: 50 μg membrane extract, 12 hours
T2 construct: C2C12 myotubes (that express both AdipoR1 and AdipoR2) were incubated with 20 μl control or ULMA-beads; endogenous in cells; host or cells: C2C12 myotubes (mouse), plasma membrane extract
T2 sequence (Q8BQS5 1-386): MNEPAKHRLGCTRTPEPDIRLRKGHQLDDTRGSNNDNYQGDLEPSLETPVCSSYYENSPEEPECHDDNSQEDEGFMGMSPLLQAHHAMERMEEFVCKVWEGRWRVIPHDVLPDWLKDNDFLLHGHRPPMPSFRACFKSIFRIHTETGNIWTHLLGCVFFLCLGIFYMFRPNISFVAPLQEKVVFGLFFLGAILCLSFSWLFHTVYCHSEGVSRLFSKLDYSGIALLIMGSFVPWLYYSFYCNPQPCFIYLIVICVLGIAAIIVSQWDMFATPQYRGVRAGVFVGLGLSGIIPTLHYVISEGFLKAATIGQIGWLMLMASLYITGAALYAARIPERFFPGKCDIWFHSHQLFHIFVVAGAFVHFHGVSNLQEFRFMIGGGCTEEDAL
Procedure: as §1, §2, §3, §4, §5

## O=C1c2c(cc(O)c([C@@H]3O[C@H](CO)[C@@H](O)[C@H](O)[C@H]3O)c2O)O[C@@H](c2ccc(O)c(O)c2)[C@@H]1O [ULMA, (2S,3S)-(+)-3′,4′,5,7-tetrahydroxydihydroflavonol-6-C-β-D-glucopyranoside]
AdipoR1
  AdipoR1 detection on ULMA beads vs control beads: detected on ULMA beads
AdipoR2
  AdipoR2 detection on ULMA beads vs control beads: detected on ULMA beads
